According to patent US11319299B2, “Substituted carboxamides as inhibitors of WDR5 protein-protein binding” (PROPELLON THERAPEUTICS INC., priority 2016, dated 2022):

Each compound was assayed against WDR5 (Homo sapiens (Human), UniProt P61964) (assay: Surface Plasmon Resonance (SPR) assay, KD and residence time). Conditions: surface plasmon resonance (SPR) assay; read-out: WDR5 binding affinity (KD).
Assay type: binding
A Kd of 2.78 nM was found for C[C@@H]1CN(c2cc(F)c(-c3cncc(C(F)(F)F)c3)cc2NC(=O)c2c[nH]c(=O)cc2C(F)(F)F)C[C@H](C)N1C [Example 173, N-[4-fluoro-2-[(3R,5S)-3,4,5-trimethylpiperazin-1-yl]-5-[5-(trifluoromethyl)pyridin-3-yl]phenyl]-6-oxo-4-(trifluoromethyl)-1H-pyridine-3-carboxamide] in this work. A Kd of 1.53 nM was found for C[C@@H]1CN(c2cc(F)c(-c3cncc(C(=O)NC(C)(C)C)c3)cc2NC(=O)c2c[nH]c(=O)cc2C(F)(F)F)C[C@H](C)N1C [Example 174, N-[5-[5-(tert-butylcarbamoyl)pyridin-3-yl]-4-fluoro-2-[(3R,5S)-3,4,5-trimethylpiperazin-1-yl]phenyl]-6-oxo-4-(trifluoromethyl)-1H-pyridine-3-carboxamide] in this work. A Kd of 20.6 nM was found for C[C@@H]1CN(c2cc(F)c(-c3cnc(N4CCOCC4)nc3)cc2NC(=O)c2cc(Cl)cc(C(F)(F)F)c2)C[C@H](C)N1C [Example 175, 3-chloro-N-[4-fluoro-5-(2-morpholin-4-ylpyrimidin-5-yl)-2-[(3R,5S)-3,4,5-trimethylpiperazin-1-yl]phenyl]-5-(trifluoromethyl)benzamide] in this work. A Kd of 50.9 nM was found for C[C@@H]1CN(c2cc(F)c(-c3cnc(N4CCOCC4)nc3)cc2NC(=O)c2cc(F)cc(C(F)(F)F)c2)C[C@H](C)N1C [Example 176, 3-fluoro-N-[4-fluoro-5-(2-morpholin-4-ylpyrimidin-5-yl)-2-[(3R,5S)-3,4,5-trimethylpiperazin-1-yl]phenyl]-5-(trifluoromethyl)benzamide] in this work. A Kd greater than 200 nM was found for CN(C)[C@@H]1CCN(c2cc(F)c(-c3ccc(N4CCOCC4)cc3)cc2NC(=O)c2cn[nH]c2)C1 [Example 177, N-[4-fluoro-5-(4-morpholin-4-ylphenyl)-2-[(3R)-3-(dimethylamino)pyrrolidin-1-yl]phenyl]-1H-pyrazole-4-carboxamide] in this work. A Kd of 11.5 nM was found for C[C@@H]1CN(c2cc(F)c(-c3cncc(C(N)=O)c3)cc2NC(=O)c2c[nH]c(=O)cc2C(F)(F)F)C[C@H](C)N1C [Example 179, N-[5-(5-carbamoylpyridin-3-yl)-4-fluoro-2-[(3R,5S)-3,4,5-trimethylpiperazin-1-yl]phenyl]-6-oxo-4-(trifluoromethyl)-1H-pyridine-3-carboxamide] in this work. A Kd of 35.4 nM was found for C[C@@H]1CN(c2cc(F)c(-c3cncc(C(F)(F)F)c3)cc2NC(=O)c2cn(C)c(=O)cc2C(F)(F)F)C[C@H](C)N1C [Example 180, N-[4-fluoro-2-[(3R,5S)-3,4,5-trimethylpiperazin-1-yl]-5-[5-(trifluoromethyl)pyridin-3-yl]phenyl]-1-methyl-6-oxo-4-(trifluoromethyl)pyridine-3-carboxamide] in this work. A Kd of 9.8 nM was found for CN(C)[C@@H]1CCN(c2cc(F)c(-c3cnc(N4CCOCC4)nc3)cc2NC(=O)c2cn(C)c(=O)cc2C(F)(F)F)C1 [Example 184, N-[4-fluoro-5-(2-morpholin-4-ylpyrimidin-5-yl)-2-[(3R)-3-(dimethylamino)pyrrolidin-1-yl]phenyl]-1-methyl-6-oxo-4-(trifluoromethyl)pyridine-3-carboxamide] in this work. A Kd of 29.8 nM was found for CN(C)[C@@H]1CCN(c2cc(F)c(-c3cnc(N4CCOCC4)nc3)cc2NC(=O)c2c[nH]nc2C(F)(F)F)C1 [Example 185, N-[4-fluoro-5-(2-morpholin-4-ylpyrimidin-5-yl)-2-[(3R)-3-(dimethylamino)pyrrolidin-1-yl]phenyl]-3-(trifluoromethyl)-1H-pyrazole-4-carboxamide] in this work. A Kd of 40.2 nM was found for C[C@@H]1CN(c2cc(F)c(-c3cnc(N4CCOCC4)nc3)cc2NC(=O)c2cccc(C(F)(F)F)c2)C[C@H](C)N1C [Example 186, N-[4-fluoro-5-(2-morpholin-4-ylpyrimidin-5-yl)-2-[(3R,5S)-3,4,5-trimethylpiperazin-1-yl]phenyl]-3-(trifluoromethyl)benzamide] in this work. A Kd of 209 nM was found for C[C@@H]1CN(c2cc(F)c(-c3cnc(N4CCOCC4)nc3)cc2NC(=O)c2cncnc2C(F)(F)F)C[C@H](C)N1C [Example 187, N-[4-fluoro-5-(2-morpholin-4-ylpyrimidin-5-yl)-2-[(3R,5S)-3,4,5-trimethylpiperazin-1-yl]phenyl]-4-(trifluoromethyl)pyrimidine-5-carboxamide] in this work. A Kd of 93.2 nM was found for C[C@@H]1CN(c2cc(F)c(-c3cnc(N4CCOCC4)nc3)cc2NC(=O)c2scnc2C(F)(F)F)C[C@H](C)N1C [Example 188, N-[4-fluoro-5-(2-morpholin-4-ylpyrimidin-5-yl)-2-[(3R,5S)-3,4,5-trimethylpiperazin-1-yl]phenyl]-4-(trifluoromethyl)-1,3-thiazole-5-carboxamide] in this work. A Kd of 442 nM was found for C[C@@H]1CN(c2cc(F)c(-c3cnc(N4CCOCC4)nc3)cc2NC(=O)c2cc(C(F)(F)F)ccc2F)C[C@H](C)N1C [Example 189, 2-fluoro-N-[4-fluoro-5-(2-morpholin-4-ylpyrimidin-5-yl)-2-[(3R,5S)-3,4,5-trimethylpiperazin-1-yl]phenyl]-5-(trifluoromethyl)benzamide] in this work. A Kd of 14.7 nM was found for COc1cc(F)cc(C(=O)Nc2cc(-c3cnc(N4CCOCC4)nc3)c(F)cc2N2C[C@@H](C)N(C)[C@@H](C)C2)c1 [Example 190, 3-fluoro-N-[4-fluoro-5-(2-morpholin-4-ylpyrimidin-5-yl)-2-[(3R,5S)-3,4,5-trimethylpiperazin-1-yl]phenyl]-5-methoxybenzamide] in this work. A Kd of 21.5 nM was found for C[C@@H]1CN(c2cc(F)c(-c3ccc(N4CCOCC4)cc3)cc2NC(=O)c2cc(Cl)cc(Cl)c2)C[C@H](C)N1C [Example 191, 3,5-dichloro-N-[4-fluoro-5-(4-morpholin-4-ylphenyl)-2-[(3R,5S)-3,4,5-trimethylpiperazin-1-yl]phenyl]benzamide] in this work. A Kd of 1.66 nM was found for C[C@@H]1CN(c2cc(F)c(-c3cnc(N4CCCN(C)CC4)nc3)cc2NC(=O)c2ccc(F)cc2C(F)(F)F)C[C@H](C)N1C [Example 203, 4-fluoro-N-[4-fluoro-5-[2-(4-methyl-1,4-diazepan-1-yl)pyrimidin-5-yl]-2-[(3R,5S)-3,4,5-trimethylpiperazin-1-yl]phenyl]-2-(trifluoromethyl)benzamide] in this work. A Kd of 13.8 nM was found for C[C@@H]1CN(c2cc(F)c(-c3ccc(N4CCOCC4)cc3)cc2NC(=O)c2cn(C)c(=O)cc2C(F)(F)F)C[C@H](C)N1C [Example 204, N-[4-fluoro-5-(4-morpholin-4-ylphenyl)-2-[(3R,5S)-3,4,5-trimethylpiperazin-1-yl]phenyl]-1-methyl-6-oxo-4-(trifluoromethyl)pyridine-3-carboxamide] in this work. A Kd of 8.15 nM was found for C[C@@H]1CN(c2cc(F)c(-c3cncc(C#N)c3)cc2NC(=O)c2c[nH]c(=O)cc2C(F)(F)F)C[C@H](C)N1C [Example 205, N-[5-(5-cyanopyridin-3-yl)-4-fluoro-2-[(3R,5S)-3,4,5-trimethylpiperazin-1-yl]phenyl]-6-oxo-4-(trifluoromethyl)-1H-pyridine-3-carboxamide] in this work. A Kd of 3.85 nM was found for C[C@@H]1CN(c2cc(F)c(-c3cncc(Cl)c3)cc2NC(=O)c2c[nH]c(=O)cc2C(F)(F)F)C[C@H](C)N1C [Example 206, N-[5-(5-chloropyridin-3-yl)-4-fluoro-2-[(3R,5S)-3,4,5-trimethylpiperazin-1-yl]phenyl]-6-oxo-4-(trifluoromethyl)-1H-pyridine-3-carboxamide] in this work. A Kd of 6.69 nM was found for C[C@@H]1CN(c2cc(F)c(-c3cccnc3OC3CCCCC3)cc2NC(=O)c2c[nH]c(=O)cc2C(F)(F)F)C[C@H](C)N1C [Example 207, N-[5-(2-cyclohexyloxypyridin-3-yl)-4-fluoro-2-[(3R,5S)-3,4,5-trimethylpiperazin-1-yl]phenyl]-6-oxo-4-(trifluoromethyl)-1H-pyridine-3-carboxamide] in this work. A Kd of 0.57 nM was found for COc1ccc(CC(=O)N2CC=C(c3cc(NC(=O)c4c[nH]c(=O)cc4C(F)(F)F)c(N4C[C@@H](C)N(C)[C@@H](C)C4)cc3F)CC2)cc1 [Example 208, N-[4-fluoro-5-[1-[2-(4-methoxyphenyl)acetyl]-3,6-dihydro-2H-pyridin-4-yl]-2-[(3R,5S)-3,4,5-trimethylpiperazin-1-yl]phenyl]-6-oxo-4-(trifluoromethyl)-1H-pyridine-3-carboxamide] in this work. A Kd of 9.53 nM was found for COCCOc1ccc(-c2cc(NC(=O)c3cn(C)c(=O)cc3C(F)(F)F)c(N3C[C@@H](C)N(C)[C@@H](C)C3)cc2F)cn1 [Example 209, N-(4-fluoro-5-(6-(2-methoxyethoxy)pyridin-3-yl)-2-((3S,5R)-3,4,5-trimethylpiperazin-1-yl)phenyl)-1-methyl-6-oxo-4-(trifluoromethyl)-1,6-dihydropyridine-3-carboxamide] in this work. A Kd of 3.86 nM was found for C[C@@H]1CN(c2cc(F)c(-c3cnc(N4CCCC4)nc3)cc2NC(=O)c2cn(C)c(=O)cc2C(F)(F)F)C[C@H](C)N1C [Example 210, N-[4-fluoro-5-(2-pyrrolidin-1-ylpyrimidin-5-yl)-2-[(3R,5S)-3,4,5-trimethylpiperazin-1-yl]phenyl]-1-methyl-6-oxo-4-(trifluoromethyl)pyridine-3-carboxamide] in this work. A Kd of 120 nM was found for C[C@@H]1CN(c2cc(F)c(-c3cnc(N4CCOCC4)nc3)cc2NC(=O)c2sccc2C(F)(F)F)C[C@H](C)N1C [Example 211, N-[4-fluoro-5-(2-morpholin-4-ylpyrimidin-5-yl)-2-[(3R,5S)-3,4,5-trimethylpiperazin-1-yl]phenyl]-3-(trifluoromethyl)thiophene-2-carboxamide] in this work. A Kd of 2.71 nM was found for C[C@@H]1CN(c2cc(F)c(-c3cnc(N4CCOCC4)nc3)cc2NC(=O)c2cc(Cl)c(F)c(Cl)c2)C[C@H](C)N1C [Example 212, 3,5-dichloro-4-fluoro-N-[4-fluoro-5-(2-morpholin-4-ylpyrimidin-5-yl)-2-[(3R,5S)-3,4,5-trimethylpiperazin-1-yl]phenyl]benzamide] in this work. A Kd of 6.91 nM was found for C[C@@H]1CN(c2cc(F)c(-c3cnc(N4CCOCC4)nc3)cc2NC(=O)c2cccc(Cl)c2Cl)C[C@H](C)N1C [Example 213, 2,3-dichloro-N-[4-fluoro-5-(2-morpholin-4-ylpyrimidin-5-yl)-2-[(3R,5S)-3,4,5-trimethylpiperazin-1-yl]phenyl]benzamide] in this work.
